Converted amounts (≈) assume the structure as drawn.

The test has as its system Staphylococcus aureus (Isolate ID ATCC 29213). Kind of test: Bacterial assay: MIC by broth microdilution or agar dilution (CLSI), S. aureus ATCC 29213. Format: cell-based. The following applies: Staphylococcus aureus, ATCC29213, read-out: S. aureus MIC (μg/mL) Activity Range, S. aureus (ATCC29213). The method in brief:
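MICs by CLSI broth microdilution or agar dilution against S. aureus ATCC 29213 and its FtsZ-G196A mutant. Values reported as ranges: A ≤0.25 μg/mL, B >0.25–1.0, C >1.0–16, D >16 μg/mL.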
(In general: Dilution methods test growth across graded concentrations, often in twofold steps.)
`NC(=O)c1c(F)ccc(OC(COCCO)c2nc(-c3ccc(C(F)(F)F)cc3)c(Br)o2)c1F` (stereo not drawn) [Compound 150, 3-(1-(5-bromo-4-(4-(trifluoromethyl)phenyl)oxazol-2-yl)-2-(2-hydroxyethoxy)ethoxy)-2,6-difluorobenzamide]: the MIC lay within 0.25 to 1 µg/mL (≈ 0.454 to 1.81 µM).

For the compound `CCOC(=O)C(Oc1ccc(F)c(C(N)=O)c1F)c1coc(-c2ccc(C(F)(F)F)cc2)n1` (stereo not drawn) [Compound 129, ethyl 2-(3-carbamoyl-2,4-difluorophenoxy)-2-(2-(4-(trifluoromethyl)phenyl)oxazol-4-yl)acetate], the MIC was in the range of 1 to 16 µg/mL (≈ 2.13 to 34 µM). The value for `NC(=O)CCC(Oc1ccc(F)c(C(N)=O)c1F)c1nc(-c2ccc(C(F)(F)F)cc2)c(Br)o1` (stereo not drawn) [Compound 101, 3-(4-amino-1-(5-bromo-4-(4-(trifluoromethyl)phenyl)oxazol-2-yl)-4-oxobutoxy)-2,6-difluorobenzamide] was 0.25 to 1 µg/mL (≈ 0.456 to 1.82 µM).

Regarding `NC(=O)c1c(F)ccc(OC(COC(=O)NCc2ccc[n+]([O-])c2)c2nc(-c3ccc(C(F)(F)F)cc3)c(Br)o2)c1F` (stereo not drawn) [Compound 174, 3-((((2-(5-bromo-4-(4-(trifluoromethyl)phenyl)oxazol-2-yl)-2-(3-carbamoyl-2,4-difluorophenoxy)ethoxy)carbonyl)amino)methyl)pyridine 1-oxide], the MIC was over 16 µg/mL.

`NC(=O)c1c(F)ccc(OC(CNC(=O)OCc2ccccc2)c2nc(-c3ccc(C(F)(F)F)cc3)co2)c1F` (stereo not drawn) [Compound 276, benzyl (2-(3-carbamoyl-2,4-difluorophenoxy)-2-(4-(4-(trifluoromethyl)phenyl)oxazol-2-yl)ethyl)carbamate]: the MIC fell in the range of 1 to 16 µg/mL (≈ 1.78 to 28.5 µM).

As to `NC(=O)c1c(F)ccc(OC(CCO)c2nc(-c3ccc(C(F)(F)F)cc3)c(Br)o2)c1F` (stereo not drawn) [Compound 73, 3-(1-(5-bromo-4-(4-(trifluoromethyl)phenyl)oxazol-2-yl)-3-hydroxypropoxy)-2,6-difluorobenzamide], the MIC is 0.25 to 1 µg/mL (≈ 0.48 to 1.92 µM). For `NC(=O)c1c(F)ccc(OC(CO)c2nc(-c3ccc(N4CCCC4)c(Br)c3)c(Br)o2)c1F` (stereo not drawn) [Compound 256, 3-(1-(5-bromo-4-(3-bromo-4-(pyrrolidin-1-yl)phenyl)oxazol-2-yl)-2-hydroxyethoxy)-2,6-difluorobenzamide], the MIC lay within 1 to 16 µg/mL (≈ 1.7 to 27.2 µM).

For the compound `NC(=O)c1c(F)ccc(OC(CO)c2nc(Br)c(-c3ccc(C(F)(F)F)cc3)o2)c1F` (stereo not drawn) [Compound 149, 3-(1-(4-bromo-5-(4-(trifluoromethyl)phenyl)oxazol-2-yl)-2-hydroxyethoxy)-2,6-difluorobenzamide], the MIC was 1 to 16 µg/mL (≈ 1.97 to 31.5 µM). The value for `CCOC(=O)CCC(=O)OCC(Oc1ccc(F)c(C(N)=O)c1F)c1nc(-c2ccc(C(F)(F)F)cc2)c(Cl)o1` (stereo not drawn) [Compound 56, 2-(3-carbamoyl-2,4-difluorophenoxy)-2-(5-chloro-4-(4-(trifluoromethyl)phenyl)oxazol-2-yl)ethyl ethyl succinate] was 0.25 to 1 µg/mL. On to `NC(=O)c1c(F)ccc(OC(c2cccnc2)c2nc(-c3ccc(Cl)cc3)c(Br)o2)c1F` (stereo not drawn) [Compound 99, 3-((5-bromo-4-(4-chlorophenyl)oxazol-2-yl)(pyridin-3-yl)methoxy)-2,6-difluorobenzamide], for which the MIC was 1 to 16 µg/mL (≈ 1.92 to 30.7 µM). With `CS(=O)(=O)NCC(Oc1ccc(F)c(C(N)=O)c1F)c1nc(-c2ccc(C(F)(F)F)cc2)c(Br)o1` (stereo not drawn) [Compound 285, 3-(1-(5-bromo-4-(4-(trifluoromethyl)phenyl)oxazol-2-yl)-2-(methylsulfonamido)ethoxy)-2,6-difluorobenzamide] the figure was 1 to 16 µg/mL (≈ 1.71 to 27.4 µM); with `COc1ncccc1CNC(=O)OCC(Oc1ccc(F)c(C(N)=O)c1F)c1nc(-c2ccc(C(F)(F)F)cc2)c(Br)o1` (stereo not drawn) [Compound 196, 2-(5-bromo-4-(4-(trifluoromethyl)phenyl)oxazol-2-yl)-2-(3-carbamoyl-2,4-difluorophenoxy)ethyl ((2-methoxypyridin-3-yl)methyl)carbamate], under 0.25 µg/mL.

Turning to `CCC(Oc1ccc(F)c(C(N)=O)c1F)c1nc(CCOC(C)=O)oc1Br` (stereo not drawn) [Compound 121, 2-(5-bromo-4-(1-(3-carbamoyl-2,4-difluorophenoxy)propyl)oxazol-2-yl)ethyl acetate], the MIC was over 16 µg/mL. Turning to `CC(=O)OCC(Oc1ccc(F)c(C(N)=O)c1F)c1nc(-c2ccc(Cl)cc2)c(Br)o1` (stereo not drawn) [Compound 36], the MIC lay in the range of 0.25 to 1 µg/mL (≈ 0.485 to 1.94 µM). `COc1ccc(-c2coc([C@H](C)Oc3ccc(F)c(C(N)=O)c3F)n2)cc1` [Compound 268A, (S)-2,6-difluoro-3-(1-(4-(4-methoxyphenyl)oxazol-2-yl)ethoxy)benzamide]: the MIC is over 16 µg/mL. Turning to `NC(=O)c1c(F)ccc(OC(C(=O)O)c2csc(-c3ccc(C(F)(F)F)cc3)n2)c1F` (stereo not drawn) [Compound 127, 2-(3-carbamoyl-2,4-difluorophenoxy)-2-(2-(4-(trifluoromethyl)phenyl)thiazol-4-yl)acetic acid], the MIC is over 16 µg/mL. On to `C=CCc1oc(C(CC)Oc2ccc(F)c(C(N)=O)c2F)nc1-c1ccc(Cl)cc1` (stereo not drawn) [Compound 22, 3-(1-(5-allyl-4-(4-chlorophenyl)oxazol-2-yl)propoxy)-2,6-difluorobenzamide], for which the MIC is 1 to 16 µg/mL (≈ 2.31 to 37 µM). The value for `COc1cc(Cl)ccc1-c1coc(C(CO)Oc2ccc(F)c(C(N)=O)c2F)n1` (stereo not drawn) [Compound 227, 3-(1-(4-(4-chloro-2-methoxyphenyl)oxazol-2-yl)-2-hydroxyethoxy)-2,6-difluorobenzamide] was over 16 µg/mL; that for `NC(=O)c1c(F)ccc(OC(CO)c2nc(-c3ccc(Cl)cc3)c(Cl)o2)c1F` (stereo not drawn) [Compound 47, 3-(1-(5-chloro-4-(4-chlorophenyl)oxazol-2-yl)-2-hydroxyethoxy)-2,6-difluorobenzamide] was 0.25 to 1 µg/mL (≈ 0.582 to 2.33 µM); that for `CC(=O)OCC(Oc1ccc(F)c(C(N)=O)c1F)c1nc(-c2ccc(C#N)cc2)c(Br)o1` (stereo not drawn) [Compound 76, 2-(5-bromo-4-(4-cyanophenyl)oxazol-2-yl)-2-(3-carbamoyl-2,4-difluorophenoxy)ethyl acetate] was 1 to 16 µg/mL. The value for `CN(C)C(=O)CCC(Oc1ccc(F)c(C(N)=O)c1F)c1nc(-c2ccc(C(F)(F)F)cc2)c(Br)o1` (stereo not drawn) [Compound 94, 3-(1-(5-bromo-4-(4-(trifluoromethyl)phenyl)oxazol-2-yl)-4-(dimethylamino)-4-oxobutoxy)-2,6-difluorobenzamide] was under 0.25 µg/mL; that for `NC(=O)c1c(F)ccc(OC(CO)c2coc(-c3ccc(C(F)(F)F)cc3)n2)c1F` (stereo not drawn) [Compound 136, 2,6-difluoro-3-(2-hydroxy-1-(2-(4-(trifluoromethyl)phenyl)oxazol-4-yl)ethoxy)benzamide] was 1 to 16 µg/mL (≈ 2.33 to 37.4 µM). With `CC(=O)NNC(=O)CCC(Oc1ccc(F)c(C(N)=O)c1F)c1nc(-c2ccc(C(F)(F)F)cc2)c(Br)o1` (stereo not drawn) [Compound 92, 3-(4-(2-acetylhydrazinyl)-1-(5-bromo-4-(4-(trifluoromethyl)phenyl)oxazol-2-yl)-4-oxobutoxy)-2,6-difluorobenzamide] the figure was 1 to 16 µg/mL (≈ 1.65 to 26.4 µM); with `NC(=O)c1c(F)ccc(OC(CO)c2nc(-c3ccc(C(F)(F)F)cn3)c(Br)o2)c1F` (stereo not drawn) [Compound 79, 3-(1-(5-bromo-4-(5-(trifluoromethyl)pyridin-2-yl)oxazol-2-yl)-2-hydroxyethoxy)-2,6-difluorobenzamide], 1 to 16 µg/mL (≈ 1.97 to 31.5 µM).

Take `Cn1cc(CNC(=O)OCC(Oc2ccc(F)c(C(N)=O)c2F)c2nc(-c3ccc(C(F)(F)F)cc3)c(Br)o2)cn1` (stereo not drawn) [Compound 198, 2-(5-bromo-4-(4-(trifluoromethyl)phenyl)oxazol-2-yl)-2-(3-carbamoyl-2,4-difluorophenoxy)ethyl ((1-methyl-1H-pyrazol-4-yl)methyl)carbamate]: the MIC fell in the range of 0.25 to 1 µg/mL (≈ 0.388 to 1.55 µM). The value for `Cc1nc(-c2nc(C(CO)Oc3ccc(F)c(C(N)=O)c3F)oc2Br)sc1C` (stereo not drawn) [Compound 240, 3-(1-(5-bromo-4-(4,5-dimethylthiazol-2-yl)oxazol-2-yl)-2-hydroxyethoxy)-2,6-difluorobenzamide] was over 16 µg/mL; that for `N#Cc1ccc(-c2nc([C@@H](CO)Oc3ccc(F)c(C(N)=O)c3F)oc2Br)cn1` [Compound 249B, (R)-3-(1-(5-bromo-4-(6-cyanopyridin-3-yl)oxazol-2-yl)-2-hydroxyethoxy)-2,6-difluorobenzamide] was 1 to 16 µg/mL (≈ 2.15 to 34.4 µM); that for `NC(=O)CC(Oc1ccc(F)c(C(N)=O)c1F)c1nc(-c2ccc(C(F)(F)F)cc2)c(Br)o1` (stereo not drawn) [Compound 96, 3-(3-amino-1-(5-bromo-4-(4-(trifluoromethyl)phenyl)oxazol-2-yl)-3-oxopropoxy)-2,6-difluorobenzamide] was 1 to 16 µg/mL (≈ 1.87 to 29.9 µM).

Take `NC(=O)c1cccc(OC(CO)c2nc(-c3ccc(C(F)(F)F)cc3)c(Br)o2)c1F` (stereo not drawn) [Compound 159, 3-(1-(5-bromo-4-(4-(trifluoromethyl)phenyl)oxazol-2-yl)-2-hydroxyethoxy)-2-fluorobenzamide]: the MIC is under 0.25 µg/mL. Regarding `COc1ccc(-c2csc(C(CO)Oc3ccc(F)c(C(N)=O)c3F)n2)cc1` (stereo not drawn) [Compound 259, 2,6-difluoro-3-(2-hydroxy-1-(4-(4-methoxyphenyl)thiazol-2-yl)ethoxy)benzamide], the MIC lay in the range of 1 to 16 µg/mL (≈ 2.46 to 39.4 µM). With `NC(=O)c1c(F)ccc(OC(CO)c2nc(-c3ccc(C(F)(F)F)cc3)c(Cl)o2)c1F` (stereo not drawn) [Compound 44, 3-(1-(5-chloro-4-(4-(trifluoromethyl)phenyl)oxazol-2-yl)-2-hydroxyethoxy)-2,6-difluorobenzamide] the figure was 0.25 to 1 µg/mL (≈ 0.54 to 2.16 µM). With `CN1CCN(C(=O)C(Oc2ccc(F)c(C(N)=O)c2F)c2nc(-c3ccc(Cl)cc3)cs2)CC1` (stereo not drawn) [Compound 41, 3-(1-(4-(4-chlorophenyl)thiazol-2-yl)-2-(4-methylpiperazin-1-yl)-2-oxoethoxy)-2,6-difluorobenzamide] the figure was 1 to 16 µg/mL (≈ 1.97 to 31.6 µM). Take `NC(=O)c1c(F)ccc(OC(CO)c2nc(-c3ccc(Cl)cc3)cs2)c1F` (stereo not drawn) [Compound 13, 3-(1-(4-(4-chlorophenyl)thiazol-2-yl)-2-hydroxyethoxy)-2,6-difluorobenzamide]: the MIC was 0.25 to 1 µg/mL (≈ 0.609 to 2.43 µM).
